Patent US20250361214A1, “TRIAZINE LIPIDS, LIPID SYNTHESIS, AND METHODS FOR INHIBITING CANONICAL NFKB TRANSCRIPTIONAL ACTIVITY” (University of Kentucky Research Foundation, priority 2022, published 2025)
Read-outs that look alike come from different tables or passages of the source.

Columns and labels:
[1] = test system: BALB/c mice; test: Anti-hAAT antibody titers and IgG subclass ratios; format: in vivo, mouse; details: for increase of anti-hAAT titers: 25 μg hAAT protein administered with 1 mM lipid, day 14
Experimental: To assess the presence of antibodies toward hAAT, 50 μL of hAAT (OriGene #RG202082) was plated at 2 μg/mL in carbonate buffer, pH 9.7, on a 96 well high binding plate (Greiner #82050-720) and incubated overnight at 4° C. The next day, the plates were washed with PBS containing 0.1% Tween-20 (PBS-T) and blocked for 1 hour with PBS-C at 37° C. After blocking, serum samples were plated at dilutions ranging from 1:100 to 1:1,000,000 and incubated at 37° C. for 2 hours. Secondary antibody (goat anti-mouse IgG HRP; Invitrogen #16066) diluted 1:2000 was applied for 30 min at 37° C., followed by a 30 min. incubation with tetramethylbenzidine (Rockland). Absorbance at 450 nm was recorded using a BioTek Synergy H1 microplate reader. Reciprocal endpoint titers were determined by plotting A450 values versus known dilutions, calculating the slope of that line, and dividing the slope by two times the average of the blank (no serum) wells.
Anti-hAAT IgG subclass ratios were assessed as described above, using a single 1:100 sample dilution and the following detection antibodies: goat anti-mouse IgG1-HRP (Abcam ab98693) at 1:10,000, IgG2a-HRP (Abcam ab98698) at 1:5000, IgG2b-HRP (Abcam ab98703) at 1:10,000 and IgG3 (Jackson 115-035-209) at 1:5000. Subclass ratios were calculated by dividing the absorbance of each subclass by that of IgG1 for each individual mouse.

[2] = test system: bone marrow derived macrophages; test: in vitro; format: cell-based
Experimental: (§1) Cell Culture of Bone Marrow-Derived Macrophages. […] After 7 days, the cells were transferred to tissue culture 96 well plates (Corning) at a density of 100,000 in 20 μL of medium and allowed to settle overnight for subsequent assays.
(§2) Lactate Dehydrogenase Release (LDH) Toxicity Assay. For determination of cytotoxicity, mature bone marrow-derived macrophages (BMDM) were treated with 20 μL of the lipids (concentrations denoted in figure legend) diluted in 20 mM HEPES buffer, with HEPES buffer as negative control and 10% Triton X-100 as positive control. After 24 hours, the 96 well plates were centrifuged at 200×g for 5 minutes to remove debris and 100 μL of media was transferred to an untreated flat-bottom 96 well plate. Next, 100 μL of LDH reaction reagent purchased from Cayman Chemical (Ann Arbor, MI) was added to each and allowed to sit for 30 minutes at 37° C. Absorbance at 490 and 680 nm were measured using a BioTek Synergy H1 plate reader and the data were processed using Microsoft Excel. Mean values from triplicates are shown for one of two independent experiments.

[3] = Size and charge determination of nanoparticles (Zetasizer Nano ZS), Example 1; format: physicochemical
Source text: Size and Charge Determination.

[4] = test system: canonical NFKB; test: THP-1-Blue NFKB reporter (SEAP) assay; format: cell-based, human; details: read-out: IC50, canonical NFKB inhibition
[5] = Characterization of nanoparticles (size, zeta potential, DNA encapsulation), Example 2; format: physicochemical; details: LNPs made with the cationic lipid
Experimental: The concentration of DNA in LNPs after dialysis was quantified using an AccuClear® Ultra High Sensitivity dsDNA Quantification Kit (Biotium #31027) and quantified on a BioTek Synergy H1 plate reader. Encapsulation efficiencies were determined by comparing the amount of DNA in the LNP solution vs. the DNA solution used to make them, after disrupting the LNPs with 0.5% Cl2E10 (Abcam #ab146563) and adjusting for volume differences (i.e.: excess volume added during dialysis and dilution volume during ethanol mixture).

[6] = test system: BALB/c mice; test: In vivo hAAT transfection efficiency, serum ELISA and ALT; set-up: species or system mouse; details: LPs (50% cationic lipid, 50% DOPE), 10,000 ng hAAT plasmid DNA i.p., 72 hours
Experimental: To assess in vivo hAAT transfection efficiency, mice were administered 200 μL nanoparticles or PBS vehicle i.p. at the doses indicated in the figure legend. Seventy-two hours after injection the mice were bled again for assessment of ALT levels and hAAT expression. hAAT levels were determined via ELISA using serum diluted 1:1 in PBS containing 0.05% casein (PBS-C; 124250; Beantown Chemical), as described previously.^38

[7] = test system: C57BL/6J mice; test: In vivo toxicity of cationic lipid nanoparticles (ALT, IL-6, SCr, mortality)
[8] = Differential scanning calorimetry, transition temperature (Tm) of lipids; format: physicochemical; details: liposomes of pure lipid, 10 mM in 20 mM HEPES, DSC
Experimental: Differential Scanning calorimetery. The transition temperature (Tm) of the lipids was determined using a multicell differential scanning calorimeter (TA Instruments). Liposomes were made with triazine lipids at a concentration of 10 mM in 20 mM HEPES buffer. These were heated to 60° C. and sonicated until the solution was translucent. For Tm determination, 250 μL of the liposome solution was transferred into reusable hastelloy ampoules while 250 μL of the HEPES solution was transferred to the third ampoule, leaving the reference ampoule empty. […] Data was collected over a range of 10-110° C. at a rate of 2° C. min-1 in a heat-cool-heat cycle. After the run was complete, the CpCalc 2.1 software package was used to convert the raw data into a molar heat capacity and the data from the second heating cycle were processed using Microsoft Excel.

[9] = Nanoparticle pKa via TNS fluorescence; format: physicochemical; details: liposomes, pH 2.5 to 12
Experimental: Determination of Nanoparticle pKa via TNS Fluorescence. […] The solutions were mixed by pipetting and incubated at room temperature for 10 minutes, before being analysed for fluorescence intensity using a 321 nm excitation and 445 nm emission wavelengths.

[10] = in vitro; format: cell-based; details: female, C57BL/6J, mouse
Experimental: as §1, §2

[11] = test system: HeLa cells; test: Transfection of luciferase plasmid; format: cell-based
Experimental: Transfection of Luciferase Plasmid and Cell Viability. HeLa cells cultured in EMEM (ATCC) supplemented with 10% fetal bovine serum were transferred to a 96 well plate, in quadruplicate, at a density of 20,000 cells per well and incubated for 24 hours at 37° C. in 5% CO2. Liposomes made with a 1:1 ratio of DOPE and TZ lipid were added to 200 ng pGL3 Luciferase Reporter Vector (Promega) at N:P ratios of 2.5, 5 and 10, and incubated at 37° C. for 10 minutes before being diluted in 100 μL of nonsupplemented EMEM and added to the cells. Following a four hour incubation at 37° C., the media was changed, and the cells were incubated for another twenty hours, at which point the cells were lysed with a cell culture lysis reagent at pH 7.8 composed of 25 mM Tris-phosphate buffer, 0.7 g L^−1 1,2-diaminocyclohexane, 10% glycerol, 1% Triton X-100, and 1% protease inhibitor cocktail (Millipore). Total protein content was determined with a bicinchoninic acid assay (G-Biosciences) and luciferase protein expression was quantified by a luciferase assay (Promega). Cell viability was assessed using a Cell Titer Blue assay kit (Promega) based on the manufacturer's instructions. In each of the three independent experiments performed, transfection was compared with cells treated with Lipofectamine 3000 (Thermo), following the manufacturer's instructions, and with DNA treated cells.

[12] = liposomes, lipid:DOPE mixtures, lipoplexes, immunization liposomes (Table 2)
[13] = 20 mM lipid, i.p., versus baseline
[14] = nanoparticles of pure lipid (Table 1)
[15] = nanoparticles of pure lipid, 1 mM, 25° C. (Table 1)
[16] = zeta potential, nanoparticles of pure lipid (Table 1)
[17] = unstable nanoparticles of lipids 11 and 12, text

Row | Tm [8] | IC50 [2] | PDI [3, 14] | Size [3, 15] | Charge [3, 16] | Structure (SMILES) | also measured
1 | – | – | – | – | – | CCCCCCCCCCCCCCCCCC(=O)OC[C@@H](COP(=O)([O-])OCC[N+](C)(C)C)OC(=O)CCCCCCCCCCCCCCCCC (stereo in doubt) [DSPC, 1,2-distearoyl-sn-glycero-3-phosphocholine, reference compound] | increase of anti-hAAT titers [1]: 100 fold
2 | – | – | – | – | – | CCCCCCCCCCCCCC(=O)OC[C@H](COP(=O)([O-])OCC[N+](C)(C)C)OC(=O)CCCCCCCCCCCCC [DMPC, 1,2-Dimyristoyl-sn-glycero-3-phosphocholine, reference compound] | LD50 ([2]; LDH activity, BMDMs incubated 24 hours, text of Example 3): 969 µM; LD50 ([2]; LDH release, 24 hours (Table 2)): 969 µM; PDI ([3]; Table 2): 0.39 ± 0.01; Size [3, 12]: 277 ± 45 nm; Charge ([3]; zeta potential (Table 2)): −9 ± 0.3 mV
3 | – | – | – | – | – | CCCCCCCC/C=C\CCCCCCCC(=O)OCC(C[N+](C)(C)C)OC(=O)CCCCCCC/C=C\CCCCCCCC.[Cl-] (stereo not drawn) [DOTAP, 1,2-dioleoyl-3-trimethylammonium propane, reference compound] | increase of anti-hAAT titers [1]: 10 fold; anti-hAAT IgG titers ([1]; transgene delivery, 10 μg hAAT DNA, day 14, versus untreated mice): significantly higher anti-hAAT titers than untreated mice; Th1/Th2 response (ratios of IgG2a, 2b, and 3 over IgG1) ([1]; transgenic hAAT delivery with LPs): balanced Th1/Th2 response; IC50 ([4]; Homo sapiens, 24 h): 28 µM; encapsulation of DNA (general) [5]: 70-80%; average hAAT levels in serum [6]: 3 ng/mL; interleukin 6 (IL-6) [7, 13]: neither these nor the IL-6 elevation in DOTAP-treated mice reached statistical significance
4 | – | – | – | – | – | CCCCCCCC/C=C\CCCCCCCCOCC(C[N+](C)(C)C)OCCCCCCCC/C=C\CCCCCCCC (stereo not drawn) [DOTMA, 1,2-di-O-octadecenyl-3-trimethylammonium propane, reference compound] | PDI ([3]; Table 2): 0.43 ± 0.06; Size [3, 12]: 105 ± 2 nm; Charge ([3]; zeta potential (Table 2)): 70 ± 4 mV
5 | < 10 °C | 1100 µM | 0.24 ± 0.02 | 124 ± 2 nm | −63 ± 4 mV | CCCCCCCCCCCCN(CCCCCCCCCCCC)c1nc(NCCC(=O)O)nc(NCCC(=O)O)n1 [Lipid 1] | –
6 | < 10 °C | 679 µM | 0.40 ± 0.00 | 87 ± 2 nm | −73 ± 6 mV | CCCCCCCCCCCCN(CCCCCCCCCCCC)c1nc(NCCS)nc(NCCC(=O)O)n1 [Lipid 5] | –
7 | 40 °C | 988 µM | 0.27 ± 0.01 | 93 ± 2 nm | −71 ± 5 mV | CCCCCCCCCCCCCCCCCCN(CCCCCCCCCCCCCCCCCC)c1nc(NCCS)nc(NCCC(=O)O)n1 [Lipid 6] | –
8 | < 10 °C | 277 µM | Unstable Unstable | Unstable Unstable | 42 ± 5 mV | CCCCCCCCCCCCN(CCCCCCCCCCCC)c1nc(NCCCN)nc(NCCC(=O)O)n1 [Lipid 11] | PDI [3, 17]: 0.98
9 | 42 °C | 227 µM | Unstable Unstable | Unstable Unstable | 70 ± 5 mV | CCCCCCCCCCCCCCCCCCN(CCCCCCCCCCCCCCCCCC)c1nc(NCCCN)nc(NCCC(=O)O)n1 [Lipid 12] | PDI [3, 17]: 0.51

Row | Structure (SMILES) | Tm [8] | IC50 [2] | PDI [3, 14] | Size [3, 15] | Charge [3, 16] | also measured
10 | CCCCCCCCCCCCCCCCCCN(CCCCCCCCCCCCCCCCCC)c1nc(NCCCN)nc(NCCCN)n1 [Lipid 4] | 33 °C | 180 µM | 0.28 ± 0.00 | 326 ± 1 nm | 63 ± 3 mV | pKa [9]: 5.59; IC50 ([4]; THP-1-Blue cells stimulated with TNFα, 24 h lipid treatment): 29 µM
11 | CCCCCCCCCCCCN(CCCCCCCCCCCC)c1nc(NCCCN(C)C)nc(NCCCN(C)C)n1 [Lipid 9] | < 10 °C | – | 0.24 ± 0.00 | 159 ± 1 nm | 45 ± 2 mV | IC50 at 24 h [10]: 337 µM; LD50 ([2]; female, C57BL/6J, mouse, 24 h): 337000 µM; plasmid transfection (luciferase) ([11]; TZ lipid:DOPE 1:1, compared with naked plasmid): better efficacy than the lipids with C18 tails; luciferase expression ([11]; average, lipid 9:DOPE 1:1 at an N:P ratio of 5, 200 ng pGL3): 462 RLU per mg; deaths ([7]; 10 mM lipid, i.p.): one mouse dying; interleukin 6 (IL-6) ([7]; 10 mM lipid, i.p.): statistically significant increases; serum alanine aminotransferase (ALT) ([7]; 10 mM lipid, i.p.): statistically significant increases; deaths ([7]; 20 mM lipid, i.p.): three of the ten mice in this group died; interleukin 6 (IL-6) [7, 13]: significant elevations; serum alanine aminotransferase (ALT) [7, 13]: significant elevations; serum creatinine (SCr) [7, 13]: elevated but did not reach statistical significance; in vivo toxicity (overall) ([7]; 100 μL cationic lipid nanoparticles i.p.): confers significant toxicity and mortality; visual examination of internal organs ([7]; 72 hours, 10 and 20 mM): significant inflammation and swelling throughout the intestines and abdominal cavity
12 | CCCCCCCCCCCCCCCCCCN(CCCCCCCCCCCCCCCCCC)c1nc(NCCCN(C)C)nc(NCCCN(C)C)n1 [Lipid 10] | 28 °C | – | 0.28 ± 0.01 | 186 ± 1 nm | 47 ± 1 mV | IC50 ([2]; LDH release, 24 hours (Table 1), read-out: ID50 (the source's name)): 261 µM
